The nature of assay [1]: stopped-flow CO2 hydration. Type of assay: biochemical, Homo sapiens. The note with it: read-out: KI (nM) ^* / CA I. The text has this:
(§1) stopped-flow CO2 hydration on hCA XII

Assay [2] has as its target T1, hCA IX (Homo sapiens, UniProt Q16790).
T1 construct: gene CA9; recombinant, obtained in-house
The assay is described as follows: stopped-flow CO2 hydration. Type of assay: biochemical. The note with it: read-out: KI (nM) ^* / CA IX. The text has this: stopped-flow CO2 hydration on hCA IX

Assay [3] addresses T2, hCA XII (Homo sapiens, UniProt O43570).
T2 construct: gene CA12; recombinant, obtained in-house
Put plainly: stopped-flow CO2 hydration. It is filed as biochemical. The note with it: read-out: KI (nM) ^* / CA XII.
Description: as §1

Setting [4] is: CO2 […], Hepes pH […] Na2SO4, […] h preincubation at room temperature.

Like-named read-outs stand apart in the source and are kept apart here.

T2 sequence (O43570 25-354): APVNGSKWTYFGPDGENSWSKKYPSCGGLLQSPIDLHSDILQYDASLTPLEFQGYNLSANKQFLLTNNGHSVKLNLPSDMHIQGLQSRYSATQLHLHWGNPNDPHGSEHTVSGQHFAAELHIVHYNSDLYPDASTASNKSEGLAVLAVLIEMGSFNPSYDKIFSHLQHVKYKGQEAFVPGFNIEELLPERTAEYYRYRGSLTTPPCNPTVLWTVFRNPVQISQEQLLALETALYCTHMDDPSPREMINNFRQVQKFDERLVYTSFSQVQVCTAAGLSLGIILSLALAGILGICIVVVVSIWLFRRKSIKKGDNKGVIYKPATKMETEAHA

Regarding `O=S1(=O)CC=Cc2cccc(-c3ccccc3)c2O1` [compound 30, 9-Phenyl-3H-1,2-benzoxathiepine 2,2-dioxide], the Ki is over 100000 nM in assay [1] and 21100 nM in assay [2].
For `O=S1(=O)CC=Cc2ccc(-c3ccccc3)cc2O1` [compound 21, 8-Phenyl-3H-1,2-benzoxathiepine 2,2-dioxide], the figures for the Ki in assay [3] and in assay [2] were 473 nM and 105 nM, respectively.
As to `O=S1(=O)CC=Cc2cc(-c3ccc(F)cc3)ccc2O1` [compound 10, 7–(4-Fluorophenyl)-3H-1,2-benzoxathiepine 2,2-dioxide], the Ki in assay [3] was 890 nM; in assay [2], 331 nM.
Take `O=S1(=O)CC=Cc2ccc(-c3ccc(F)cc3)cc2O1` [compound 23, 8–(4-Fluorophenyl)-3H-1,2-benzoxathiepine 2,2-dioxide]: the Ki in assay [3] (setting [4]) was 77.9 nM; in assay [2], 95.2 nM.
`COc1ccc(-c2ccc3c(c2)C=CCS(=O)(=O)O3)cc1` [compound 9, 7–(4-Methoxyphenyl)-3H-1,2-benzoxathiepine 2,2-dioxide]: the Ki in assay [3] was found to be 2930 nM; in assay [2] it was 408 nM.
With `CCOC(=O)c1ccc(-c2ccc3c(c2)OS(=O)(=O)CC=C3)cc1` [compound 25, 8–(4-(Ethoxycarbonyl)phenyl)-3H-1,2-benzoxathiepine 2,2-dioxide], the results for the Ki in assay [3] and in assay [2] were 289 nM and 79.8 nM, respectively.
Regarding `CCOC(=O)c1ccc(-c2ccc3c(c2)C=CCS(=O)(=O)O3)cc1` [compound 12, 7–(4-(Ethoxycarbonyl)phenyl)-3H-1,2-benzoxathiepine 2,2-dioxide], the Ki in assay [3] came to 2400 nM; in assay [2] it was 621 nM.
For the compound `O=S1(=O)CC=Cc2ccc(-c3ccc(C(F)(F)F)cc3)cc2O1` [compound 24, 8–(4-(Trifluoromethyl)phenyl)-3H-1,2-benzoxathiepine 2,2-dioxide], the Ki in assay [3] came out at 248 nM; in assay [2] (setting [4]) it was 44 nM.
`CCOC(=O)c1ccc(-c2cccc3c2OS(=O)(=O)CC=C3)cc1` [compound 34, 9–(4-(Ethoxycarbonyl)phenyl)-3H-1,2-benzoxathiepine 2,2-dioxide]: the Ki in assay [1] is over 100000 nM; in assay [2], 16400 nM.
`O=S1(=O)CC=Cc2cc(I)ccc2O1` [compound 7, 7-Iodo-3H-1,2-benzoxathiepine 2,2-dioxide]: the figures for the Ki in assay [3] and in assay [2] were 455 nM and 66.2 nM, respectively.
As for `O=S1(=O)CC=Cc2cccc(-c3ccc(F)cc3)c2O1` [compound 32, 9–(4-Fluorophenyl)-3H-1,2-benzoxathiepine 2,2-dioxide], the Ki in assay [1] is over 100000 nM; in assay [2], 33700 nM.
As to `COc1ccc(-c2cccc3c2OS(=O)(=O)CC=C3)cc1` [compound 31, 9–(4-Methoxyphenyl)-3H-1,2-benzoxathiepine 2,2-dioxide], the figures for the Ki in assay [1] and in assay [2] were over 100000 nM and 60900 nM, respectively.
Regarding `O=S1(=O)CC=Cc2cccc(-c3ccc(C(F)(F)F)cc3)c2O1` [compound 33, 9–(4-(Trifluoromethyl)phenyl)-3H-1,2-benzoxathiepine 2,2-dioxide], the Ki in assay [1] was over 100000 nM; in assay [2], 47100 nM.
On to `COc1ccc(-c2ccc3c(c2)OS(=O)(=O)CC=C3)cc1` [compound 22, 8–(4-Methoxyphenyl)-3H-1,2-benzoxathiepine 2,2-dioxide], for which the figures for the Ki in assay [3] and in assay [2] were 169 nM and 63.1 nM, respectively.
As to `O=S1(=O)CC=Cc2ccc(Br)cc2O1` [compound 20, 8-Bromo-3H-1,2-benzoxathiepine 2,2-dioxide], the figures for the Ki in assay [3] and in assay [2] were 133 nM and 47.5 nM, respectively.
As for `O=S1(=O)CC=Cc2cc(-c3ccc(C(F)(F)F)cc3)ccc2O1` [compound 11, 7–(4-(Trifluoromethyl)phenyl)-3H-1,2-benzoxathiepine 2,2-dioxide], the results for the Ki in assay [3] and in assay [2] were 4020 nM and 221 nM, respectively.
Consider `O=S1(=O)CC=Cc2cccc(Br)c2O1` [compound 29, 9-Bromo-3H-1,2-benzoxathiepine 2,2-dioxide], for which the Ki was 3820 nM in assay [3] and 755 nM in assay [2].
On to `O=S1(=O)CC=Cc2cc(-c3ccccc3)ccc2O1` [compound 8, 7-Phenyl-3H-1,2-benzoxathiepine 2,2-dioxide], for which the Ki in assay [3] worked out at 1380 nM; in assay [2] it was 655 nM.
